Measured values taken from BindingDB's records for patent US20250346585 (Alexion Pharmaceuticals, 2025).

Target: T1, Complement C1s subcomponent (Homo sapiens, UniProt P09871)
T1 sequence (P09871 whole entry): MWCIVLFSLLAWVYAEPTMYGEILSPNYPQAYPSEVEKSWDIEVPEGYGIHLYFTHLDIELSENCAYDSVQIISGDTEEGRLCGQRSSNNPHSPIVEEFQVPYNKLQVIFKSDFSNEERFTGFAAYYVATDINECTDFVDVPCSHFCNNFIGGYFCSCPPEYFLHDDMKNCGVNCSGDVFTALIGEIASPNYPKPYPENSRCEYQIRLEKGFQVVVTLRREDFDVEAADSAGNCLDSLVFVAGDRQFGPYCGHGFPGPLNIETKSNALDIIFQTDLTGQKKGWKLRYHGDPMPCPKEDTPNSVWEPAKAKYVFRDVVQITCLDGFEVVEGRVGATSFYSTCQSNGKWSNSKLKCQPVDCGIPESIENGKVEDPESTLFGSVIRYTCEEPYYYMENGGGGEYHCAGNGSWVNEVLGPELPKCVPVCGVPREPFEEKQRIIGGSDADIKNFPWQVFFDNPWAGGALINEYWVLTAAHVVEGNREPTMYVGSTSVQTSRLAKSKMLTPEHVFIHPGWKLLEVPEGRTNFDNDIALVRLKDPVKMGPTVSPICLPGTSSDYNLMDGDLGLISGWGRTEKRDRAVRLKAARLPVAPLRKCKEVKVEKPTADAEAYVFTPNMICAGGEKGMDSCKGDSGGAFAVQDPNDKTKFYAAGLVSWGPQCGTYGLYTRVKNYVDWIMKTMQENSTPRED
Assay: Human C1s Enzyme Assay
Procedure: Human complement C1s enzyme (purified from human serum, Complement Technology, Inc.) at 1.16 nM final concentration was incubated with test compound at various concentrations for 5 min at room temperature in 50 mM Tris, 1 M NaCl, pH 7.5. A synthetic substrate Z-L-Lys-SBzl and DTNB (Ellman's reagent) were added to final concentrations of 100 μM each. Absorbance at 405 nm (A405) was recorded at 30 second intervals for 30 min using a microplate spectrophotometer. IC50 values were calculated by nonlinear regression of complement C1s reaction rates as a function of test compound concentration.

With `N=C(N)c1cc(CNC(=O)[C@@H]2CC3(CN2C(=O)CNC(=O)c2ccc(-c4ccccc4)cn2)OCCO3)cs1` [US20250346585, Compound 144] the IC50 was under 100 nM.

`O=C(NCC(=O)N1CC2(C[C@H]1C(=O)NCc1cc(N3CCCC3=O)cs1)OCCO2)c1ccc(Oc2ccc(F)cc2)cc1` [US20250346585, Compound 290] was tested, and the IC50 was over 1000 nM.

For `CC(=O)NCCNC[C@@]12C[C@@H]1N(C(=O)CNC(=O)c1ccc3c(c1)-c1ccccc1C3(F)F)[C@H](C(=O)N[C@H](C)c1cc(C(=N)N)cs1)C2` [US20250346585, Compound 315], the IC50 was under 100 nM.

`C[C@@H](NC(=O)[C@@H]1C[C@@H](S(C)(=O)=O)CN1C(=O)CNC(=O)c1ccc2sc3ccccc3c2c1)c1cc(C(=N)N)cs1` [US20250346585, Compound 332] was tested, and the IC50 was under 100 nM.

For `C[C@@H](NC(=O)[C@H]1C[C@]2(CC(F)(F)F)C[C@@H]2N1C(=O)CNC(=O)c1ccc2c(c1)-c1ccccc1C2(F)F)c1cc(C(=N)N)cs1` [US20250346585, Compound 410], the IC50 was over 1000 nM.

Molecule `C[C@@H](NC(=O)[C@@H]1C[C@]2(CC(F)(F)F)C[C@@H]2N1C(=O)CNC(=O)c1ccc2c(c1)-c1ccccc1C2(F)F)c1cc(C(=N)N)cs1` [US20250346585, Compound 411] has an IC50 of over 1000 nM.
